Reference: EPA's ToxRefDB 2

How the values were obtained:
dog [1] = conditions: Subchronic oral toxicity in nonrodent, beagle, Capsule, dose end: 90 day
dog [2] = conditions: Chronic toxicity, beagle, Oral, Capsule, dose end: 12 month
rat [3] = conditions: Subchronic oral toxicity in rodents, sprague dawley, Feed, dose end: 13 week
mouse [4] = conditions: Carcinogenicity, cd1, Oral, Feed, dose end: 102 week, group: systemic
rat [5] = conditions: Combined chronic toxicity/carcinogenicity, other, Oral, Feed, dose end: 104 week
rat [6] = conditions: Subchronic oral toxicity in rodents, fischer, Water, dose end: 13 week, group: systemic
mouse [7] = conditions: Carcinogenicity, b6c3f1, Oral, Water, dose end: 2 year, group: systemic
mouse [8] = conditions: Subchronic oral toxicity in rodents, b6c3f1, Water, dose end: 13 week
rat [9] = conditions: Combined chronic toxicity/carcinogenicity; sprague dawley; Oral; [Not Specified]; dose end: 24 month; group: systemic; systemic / hematology / erythrocyte (rbc) count differential / erythrocyte (rbc)
dog [10] = conditions: Subchronic oral toxicity in nonrodent, beagle, Feed, dose end: 13 week, group: systemic
mouse [11] = conditions: Carcinogenicity; cd1; Oral; Feed; dose end: 18 month; group: systemic; systemic / pathology microscopic / lung / adenoma
dog [12] = conditions: Chronic toxicity; beagle; Oral; Feed; dose end: 52 week; group: systemic; systemic / clinical chemistry / alkaline phosphatase (alp/alk) / alkaline phosphatase (alp/alk) + systemic / organ weight / liver / absolute…
[13] = group: cholinesterase, cholinesterase / cholinesterase / cholinesterase / plasma cholinesterase (che)
[14] = group: cholinesterase, cholinesterase / cholinesterase / cholinesterase / plasma cholinesterase (che) + cholinesterase / cholinesterase / cholinesterase / brain …
[15] = group: systemic, systemic / pathology microscopic / adrenal gland / cytoplasmic alteration + systemic / pathology microscopic / adrenal gland / hypertrophy
[16] = group: systemic, systemic / clinical chemistry / alanine aminotransferase (alt/sgpt) / alanine aminotransferase (alt/sgpt)
[17] = group: systemic, systemic / clinical chemistry / alanine aminotransferase (alt/sgpt) / alanine aminotransferase (alt/sgpt) + systemic / hematology / …
[18] = group: cholinesterase, cholinesterase / cholinesterase / cholinesterase / erythrocyte cholinesterase (che)
[19] = group: systemic, systemic / pathology microscopic / adrenal gland / vacuolization cytoplasmic
[20] = systemic / pathology microscopic / adrenal gland / pigmentation
[21] = systemic / pathology microscopic / adrenal gland / pigmentation + systemic / in life observation / body weight / body weight + systemic / in…
[22] = group: systemic, systemic / hematology / erythrocyte (rbc) count differential / erythrocyte (rbc) + systemic / hematology / hematocrit (hct) / hematocrit (…
[23] = group: systemic, systemic / urinalysis / volume / volume
[24] = systemic / hematology / [other] / [other] + systemic / hematology / jolly bodies / jolly bodies + systemic / hematology / leukocyte (wbc) …
[25] = systemic / hematology / leukocyte (wbc) count differential / leukocyte (wbc) + systemic / hematology / lymphocyte / lymphocyte
[26] = systemic / in life observation / body weight / body weight + systemic / organ weight / lung / absolute + systemic / pathology microscopic / …
[27] = systemic / pathology microscopic / liver / angiectasis + systemic / pathology microscopic / liver / eosinophilic focus + systemic / …
[28] = group: maternal, reproductive / reproductive performance / estrous cycle / abnormal
[29] = group: systemic, systemic / in life observation / body weight / body weight + systemic / in life observation / body weight / body weight gain + systemic / in…
[30] = systemic / clinical chemistry / albumin / albumin + systemic / clinical chemistry / albumin-globulin ratio / albumin-globulin ratio + …

CCOP(=O)(SC(C)CC)N1CCSC1=O (stereo not drawn) [Fosthiazate]
LEL (dog [1]; [13]): 0.11 mg/kg/day
LOAEL (dog [1]; [13]): 0.11 mg/kg/day
NEL (dog [1]; [14]): 0.054 mg/kg/day
NOAEL (dog [1]; [14]): 0.054 mg/kg/day
LEL (dog [1]; [15]): 0.11 mg/kg/day
LOAEL (dog [1]; [15]): 0.11 mg/kg/day
NEL (dog [1]; [15]): 0.054 mg/kg/day
NOAEL (dog [1]; [15]): 0.054 mg/kg/day
LEL (dog [2]; [13]): 0.5 mg/kg/day
LOAEL (dog [2]; [13]): 0.5 mg/kg/day
NEL (dog [2]; [13]): 0.1 mg/kg/day
NOAEL (dog [2]; [13]): 0.1 mg/kg/day
LEL (dog [2]; [16]): 0.5 mg/kg/day
LOAEL (dog [2]; [16]): 0.5 mg/kg/day
NEL (dog [2]; [17]): 0.1 mg/kg/day
NOAEL (dog [2]; [17]): 0.1 mg/kg/day
LEL (rat [3]; [18]): 0.09 mg/kg/day
LOAEL (rat [3]; [18]): 0.09 mg/kg/day
NEL (rat [3]; [18]): < 0.09 mg/kg/day
NOAEL (rat [3]; [18]): < 0.09 mg/kg/day
LEL (rat [3]; [19]): 0.08 mg/kg/day
LOAEL (rat [3]; [19]): 0.08 mg/kg/day
NEL (rat [3]; [19]): < 0.08 mg/kg/day
NOAEL (rat [3]; [19]): < 0.08 mg/kg/day
LEL (mouse [4]; [20]): 10.4 mg/kg/day
LOAEL (mouse [4]; [20]): 10.4 mg/kg/day
NEL (mouse [4]; [21]): 3.2 mg/kg/day
NOAEL (mouse [4]; [21]): 3.2 mg/kg/day
LEL (rat [5]; [18]): 0.051 mg/kg/day
LOAEL (rat [5]; [18]): 0.38 mg/kg/day
NEL (rat [5]; [18]): < 0.051 mg/kg/day
NOAEL (rat [5]; group: cholinesterase, cholinesterase / cholinesterase / cholinesterase / erythrocyte cholinesterase (che) + cholinesterase / cholinesterase / cholinesterase / …): 0.039 mg/kg/day
LOAEL (rat [5]; [22]): 2.45 mg/kg/day
NOAEL (rat [5]; [22]): 0.5 mg/kg/day
LEL (rat [5]; [23]): 0.039 mg/kg/day
NEL (rat [5]; [23]): < 0.039 mg/kg/day

CCOC(N)=O [Urethane]
LOAEL (rat [6]; [24]): > 525 mg/kg/day
NOAEL (rat [6]; [24]): ≥ 525 mg/kg/day
LEL (rat [6]; [25]): 11 mg/kg/day
NEL (rat [6]; [25]): < 11 mg/kg/day
LOAEL (mouse [7]; [26]): 0.325 mg/kg/day
NOAEL (mouse [7]; [26]): 0.105 mg/kg/day
LEL (mouse [7]; [27]): 0.035 mg/kg/day
NEL (mouse [7]; [27]): < 0.035 mg/kg/day
LEL (mouse [8]; [28]): 147 mg/kg/day
LOAEL (mouse [8]; [28]): > 1330 mg/kg/day
NEL (mouse [8]; [28]): 44 mg/kg/day
NOAEL (mouse [8]; [28]): ≥ 1330 mg/kg/day
LOAEL (mouse [8]; [29]): > 1330 mg/kg/day
NEL (mouse [8]; [29]): 44 mg/kg/day
NOAEL (mouse [8]; [29]): ≥ 1330 mg/kg/day
LEL (mouse [8]; group: systemic, systemic / in life observation / body weight / body weight + systemic / in life observation / body weight / body weight gain + systemic / …): 147 mg/kg/day

CCC(C)(NC(=O)c1cc(Cl)c(C)c(Cl)c1)C(=O)CCl (stereo not drawn) [Zoxamide]
LEL (rat [9]): 51 mg/kg/day
LOAEL (rat [9]): > 1060 mg/kg/day
NEL (rat [9]): < 51 mg/kg/day
NOAEL (rat [9]): ≥ 1060 mg/kg/day
LOAEL (dog [10]; [30]): 1050 mg/kg/day
NEL (dog [10]; [30]): 61.8 mg/kg/day
NOAEL (dog [10]; [30]): 322 mg/kg/day
LEL (dog [10]; systemic / organ weight / liver / absolute + systemic / organ weight / liver / relative to body weight): 322 mg/kg/day
LEL (mouse [11]): 1290 mg/kg/day
LOAEL (mouse [11]): > 1290 mg/kg/day
NEL (mouse [11]): 326 mg/kg/day
NOAEL (mouse [11]): ≥ 1290 mg/kg/day
LEL (dog [12]): 255 mg/kg/day
LOAEL (dog [12]): 255 mg/kg/day
NEL (dog [12]): 50 mg/kg/day
NOAEL (dog [12]): 50 mg/kg/day
